# Patent publication US12629387B2, “Composition of antiviral agent for use in prophylactic or post-exposure treatment of infectious or respiratory diseases” (InspirMed Corp., priority 2020, dated 2026)
# What was measured:
# [1] = Pharmacokinetics and tissue distribution study of HCQ in SD rats after single-dose IV/IT Free HCQ or IT TLC19 (Study No. PK20021); conditions: for concentration at 24 h / AUC(0-t) / Cmax: Sprague-Dawley, rat, in vivo; for concentration at 24 h: 0.59 mg/animal; for AUC(0-t) / Cmax: 0.59 mg; for Cmax: Cmax of HCQ; for Cmax / Tmax of HCQ / AUC0-72 of HCQ: Free HCQ, 0.590 mg/animal; for Tmax of HCQ: median; for mean HCQ concentration in lung, starting value of decline: start of the first 24 hours post-dose
# [2] = tested on: SARS-CoV-infected human airway epithelial (HAE) cells; conditions: read-out: in vitro antiviral EC50; cited from earlier work
structure (smiles),measurement,setting,value
"CCN(CCO)CCCC(C)Nc1ccnc2cc(Cl)ccc12 (stereo not drawn) [Free HCQ, hydroxychloroquine]",concentration at 24 h,[1],2160 ng/g
same,AUC(0-t),[1]; inhaled or intranasal,2260 ng·h/mL
same,Cmax,"[1]; inhaled or intranasal, rat blood, IT administration",477 ng/mL
same,Cmax,"[1]; inhaled or intranasal, rat heart, IT administration",3800 ng/g
same,Cmax,"[1]; inhaled or intranasal, rat lung, IT administration",47800 ng/g
same,AUC(0-t),[1]; iv,2330 ng·h/mL
same,Cmax,"[1]; iv, rat blood, IV injection",433 ng/mL
same,Cmax,"[1]; iv, rat heart, IV injection",4500 ng/g
same,Cmax,"[1]; iv, rat lung, IV injection",9400 ng/g
same,concentration at 24 h,[1]; iv,3770 ng/g
same,"overall systemic exposures (Cmax and AUC), IV group compared with IT group","[1]; rat blood, Free HCQ 0.590 mg/animal",similar
same,Tmax of HCQ,"[1]; rat blood, IT administration",15 min
same,Tmax of HCQ,"[1]; rat blood, IV injection",15 min
same,AUC0-72 of HCQ,"[1]; rat heart, IT administration",64.2 µg·h/g
same,Tmax of HCQ,"[1]; rat heart, IT administration",15 min
same,AUC0-72 of HCQ,"[1]; rat heart, IV injection",67.2 µg·h/g
same,Tmax of HCQ,"[1]; rat heart, IV injection",15 min
same,"mean HCQ concentration in lung, starting value of decline","[1]; rat lung, Free HCQ IT group",47.8 µg/g
same,"mean HCQ concentration in lung, starting value of decline","[1]; rat lung, Free HCQ IV group",9.4 µg/g
same,AUC0-72 of HCQ,"[1]; rat lung, IT administration",329 µg·h/g
same,Tmax of HCQ,"[1]; rat lung, IT administration",15 min
same,AUC0-72 of HCQ,"[1]; rat lung, IV injection",252 µg·h/g
same,Tmax of HCQ,"[1]; rat lung, IV injection",15 min
"N#C[C@@]1(c2ccc3c(N)ncnn23)O[C@H](CO)[C@@H](O)[C@H]1O [GS-441524, (2R,3R,4S,5R)-2-(4-aminopyrrolo[2,1-f][1,2,4]triazin-7-yl)-3,4-dihydroxy-5-(hydroxymethyl) oxolane-2-carbonitrile]",EC50,[2],180 nM
